Measured values published in US3954793A, “1-(2-Propynyl)-1 H-indazole compounds” (priority 1973, dated 1976).

Assays:
[1] = tested on: Swiss albino, white male mice; test: acute toxicity and synergism of acute toxicity in mice; assay type: in vivo; conditions: for number of mice dead, with Dimetilan: 48 hours
Outline: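 Male Swiss albino mice (23 to 27 g, five to six weeks), eight per dose, dosed intraperitoneally in corn oil: dimetilan alone at 4 to 32 mg per kg, synergists alone at 1000 mg/kg with deaths counted at 72 hours. For synergism, synergist given 1 hour before insecticide, lethality observed for at least 6 hours.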

[2] = tested on: male mice; test: extension of sleeping time of depressant drugs by synergists; assay type: in vivo, male mice (Swiss albino white); conditions: for Mean Sleeping Time, Noludar / Relative Sleeping Time, Noludar: Noludar 110 mg/kg; for Relative Sleeping Time, Noludar / Relative Sleeping Time, Secobarbital: treated/control; for Mean Sleeping Time, Secobarbital / Relative Sleeping Time, Secobarbital: Secobarbital 37 mg/kg
Outline: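 Swiss albino male mice (~38 days, 25-30 g) given synergist at 74.0 or 110.0 mg/kg in corn oil 1 h before Secobarbital 37.0 mg/kg or Noludar 110.0 mg/kg in water. Sleeping time measured from drug dosing to righting-reflex recovery; relative sleeping time = treated ÷ drug-only control.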

[3] = tested on: IN/WHO strain house flies; test: topical application, percent kill after 24 hours, susceptible IN/WHO strain; assay type: in vivo, female); conditions: for percent kill after 24 hours, synergist alone: insecticide 0, synergist 1 μg/fly; for percent kill after 24 hours, synergist alone (GS 13005 part of Table XXXI): GS 13005 0, synergist 1 μg/fly
Outline: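 Insecticide plus synergist in acetone, 1.0 μl applied to the thorax of CO2-anesthetized 3-to-5-day-old female IN/WHO house flies, doses in μg/fly. Flies held 10 per dish, 3-5 dishes per treatment, with skim milk. Percent mortality scored after 24 h.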

[4] = Dimetilan 8 + synergist 80 mg/kg i.p., eight mice
[5] = Dimetilan 8 + synergist 240 mg/kg i.p., eight mice
[6] = synergist 110 mg/kg one hour prior
[7] = synergist 74 mg/kg one hour prior
[8] = Diazinon 0.03 + synergist 0.15 μg/fly
[9] = GS 13005 0.05 + synergist 0.25 μg/fly
[10] = GS 13005 0.10 + synergist 0.125 μg/fly
[11] = GS 13005 0.10 + synergist 0.25 μg/fly
[12] = GS 13005 0.10 + synergist 0.50 μg/fly
[13] = Mobam 0.20 + synergist 1 μg/fly

Structure (SMILES) | number of mice dead, with Dimetilan [1, 4] | number of mice dead, with Dimetilan [1, 5] | Mean Sleeping Time, Noludar [2, 6] | Relative Sleeping Time, Noludar ([2]; synergist 110 mg/kg) | Mean Sleeping Time, Secobarbital [2, 7] | Relative Sleeping Time, Secobarbital ([2]; synergist 74 mg/kg) | percent kill after 24 hours, with Diazinon [3, 8] | percent kill after 24 hours, with GS 13005 [3, 9] | percent kill after 24 hours, with GS 13005 [3, 10] | percent kill after 24 hours, with GS 13005 [3, 11] | percent kill after 24 hours, with GS 13005 [3, 12] | percent kill after 24 hours, with Mobam [3, 13] | percent kill after 24 hours, synergist alone [3] | Mean Sleeping Time, Secobarbital [2, 6] | Relative Sleeping Time, Secobarbital ([2]; synergist 110 mg/kg) | percent kill after 24 hours, synergist alone (GS 13005 part of Table XXXI) [3] | other results
C#CCOC(c1ccc(Cl)cc1)C(C)[N+](=O)[O-] (centres unmarked) [IV-C] | 5 | 7 | 74 min | 2.5 | 112 min | 4.7 | 29% | 9% | 63% | 75% | 89% | 64% | 0% |  |  |  | percent kill after 24 hours, with Mobam ([3]; Mobam 0.20 + synergist 0.25 μg/fly): 39%; percent kill after 24 hours, with Mobam ([3]; Mobam 0.20 + synergist 0.50 μg/fly): 60%
C#CCOCc1ccc([N+](=O)[O-])cc1 [II-Q, 4-nitrobenzyl 2-propynyl ether] |  | 1 | 41 min | 2.1 | 30 min | 1.1 |  | 25% | 43% | 67% | 90% |  |  | 73 min | 1.6 | 0% | number of mice dead, with GS 13005 ([1]; GS 13005 71 + synergist 213 mg/kg): 6; number of mice dead, synergist alone ([1]; synergist 1000 mg/kg i.p., Dimetilan 0, 72 hours, eight mice): 7
C#CCOCc1cccc2ccccc12 [II-R, α-napthylmethyl 2-propynyl ether] | 0 | 2 | 49 min | 1.7 | 35 min | 1.2 | 22% |  | 49% | 65% | 68% |  | 0% | 96 min | 1.6 | 0% | 
C#CCOCc1c(Cl)ccc(Cl)c1Cl [II-E] |  | 0 | 45 min | 1.1 |  |  | 45% |  |  |  |  | 100% | 0% | 44 min | 1.4 |  | percent mortality 24 hours, with Mobam ([3]; Mobam 0.13 μg/fly, synergist/insecticide 0.5/1): 30%; percent mortality 24 hours, with Mobam ([3]; Mobam 0.13 μg/fly, synergist/insecticide 1/1): 27%; percent mortality 24 hours, with Mobam ([3]; Mobam 0.13 μg/fly, synergist/insecticide 2/1): 17%; percent mortality 24 hours, with Mobam ([3]; Mobam 0.13 μg/fly, synergist/insecticide 5/1): 40%; percent mortality 24 hours, with Mobam ([3]; Mobam 0.25 μg/fly, synergist/insecticide 0.5/1): 53%; percent mortality 24 hours, with Mobam ([3]; Mobam 0.25 μg/fly, synergist/insecticide 1/1): 77%; percent mortality 24 hours, with Mobam ([3]; Mobam 0.25 μg/fly, synergist/insecticide 2/1): 73%; percent mortality 24 hours, with Mobam ([3]; Mobam 0.25 μg/fly, synergist/insecticide 5/1): 67%; percent mortality 24 hours, with Mobam ([3]; Mobam 0.50 μg/fly, synergist/insecticide 0.5/1): 97%; percent mortality 24 hours, with Mobam ([3]; Mobam 0.50 μg/fly, synergist/insecticide 1/1): 97%; percent mortality 24 hours, with Mobam ([3]; Mobam 0.50 μg/fly, synergist/insecticide 2/1): 93%; percent mortality 24 hours, with Mobam ([3]; Mobam 0.50 μg/fly, synergist/insecticide 5/1): 100%; percent mortality 24 hours, with Mobam ([3]; Mobam 1.0 μg/fly, synergist/insecticide 0.5/1): 100%; percent mortality 24 hours, with Mobam ([3]; Mobam 1.0 μg/fly, synergist/insecticide 1/1): 100%; percent mortality 24 hours, with Mobam ([3]; Mobam 1.0 μg/fly, synergist/insecticide 2/1): 100%; percent mortality 24 hours, with Mobam ([3]; Mobam 1.0 μg/fly, synergist/insecticide 5/1): 100%; percent kill after 24 hours, with Mobam ([3]; Mobam 0.05 + synergist 0.25 μg/fly): 5%; percent kill after 24 hours, with Mobam ([3]; Mobam 0.10 + synergist 0.50 μg/fly): 33%
C#CCON=Cc1ccc(Cl)cc1Cl [I-G] |  | 0 | 48 min | 1.2 | 27 min | 1.0 |  |  |  |  |  |  | 0% | 55 min | 1.7 |  | percent kill after 24 hours, with Diazinon ([3]; Diazinon 0.02 + synergist 0.10 μg/fly): 40%
C#CCON=Cc1cccc2ccccc12 [I-I] | 0 | 3 | 62 min | 2.1 | 31 min | 1.1 |  |  |  |  |  |  |  | 102 min | 1.7 |  | 
